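Assay format: 96-well plates, 48-hour exposure. GI50 is the concentration that inhibits growth by half. TGI marks complete inhibition of growth.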
How the values were obtained:
Assay in all cases: inhibition of tumour cell growth, NCI panel, 48 h
786-0 renal = test system: 786-0 renal
A498 renal = test system: A498 renal
A549 NSCLC = test system: A549 NSCLC
ACHN renal = test system: ACHN renal
BT-549 breast = test system: BT-549 breast
CAKI-1 renal = test system: CAKI-1 renal
CCRF-CEM leukemia = test system: CCRF-CEM leukemia
COLO 205 colon = test system: COLO 205 colon
DU-145 prostate = test system: DU-145 prostate
EKVX NSCLC = test system: EKVX NSCLC
HCC-2998 colon = test system: HCC-2998 colon
HCT-116 colon = test system: HCT-116 colon
HCT-15 colon = test system: HCT-15 colon
HL-60(TB) leukemia = test system: HL-60(TB) leukemia
HOP-62 NSCLC = test system: HOP-62 NSCLC
HOP-92 NSCLC = test system: HOP-92 NSCLC
HS 578T breast = test system: HS 578T breast
HT29 colon = test system: HT29 colon
IGROV1 ovarian = test system: IGROV1 ovarian
K-562 leukemia = test system: K-562 leukemia
KM12 colon = test system: KM12 colon
LOX IMVI melanoma = test system: LOX IMVI melanoma
M14 melanoma = test system: M14 melanoma
MALME-3M melanoma = test system: MALME-3M melanoma
MCF7 breast = test system: MCF7 breast
MDA-MB-231 breast = test system: MDA-MB-231 breast
MDA-MB-435 = test system: MDA-MB-435
MOLT-4 leukemia = test system: MOLT-4 leukemia
NCI-H226 lung = test system: NCI-H226 lung
NCI-H23 lung = test system: NCI-H23 lung
NCI-H460 lung = test system: NCI-H460 lung
NCI-H522 lung = test system: NCI-H522 lung
NCI/ADR-RES ovarian = test system: NCI/ADR-RES ovarian
OVCAR-3 ovarian = test system: OVCAR-3 ovarian
OVCAR-4 ovarian = test system: OVCAR-4 ovarian
OVCAR-5 ovarian = test system: OVCAR-5 ovarian
OVCAR-8 ovarian = test system: OVCAR-8 ovarian
PC-3 prostate = test system: PC-3 prostate
RPMI-8226 leukemia = test system: RPMI-8226 leukemia
RXF 393 renal = test system: RXF 393 renal
SF-268 CNS = test system: SF-268 CNS
SF-295 CNS = test system: SF-295 CNS
SF-539 CNS = test system: SF-539 CNS
SK-MEL-2 melanoma = test system: SK-MEL-2 melanoma
SK-MEL-28 melanoma = test system: SK-MEL-28 melanoma
SK-MEL-5 melanoma = test system: SK-MEL-5 melanoma
SK-OV-3 ovarian = test system: SK-OV-3 ovarian
SN12C renal = test system: SN12C renal
SNB-19 CNS = test system: SNB-19 CNS
SNB-75 CNS = test system: SNB-75 CNS
SR leukemia = test system: SR leukemia
SW-620 colon = test system: SW-620 colon
T-47D breast = test system: T-47D breast
TK-10 renal = test system: TK-10 renal
U251 CNS = test system: U251 CNS
UACC-257 melanoma = test system: UACC-257 melanoma
UACC-62 melanoma = test system: UACC-62 melanoma
UO-31 renal = test system: UO-31 renal

## COC(=O)[C@@H](C)CNS(=O)(=O)N(c1cc(C(F)(F)F)cc(C(F)(F)F)c1)C1CCN(Cc2ccc(F)cc2)CC1
786-0 renal
  GI50: 11.2 µM
  TGI: 24 µM
A498 renal
  GI50: 12.8 µM
  TGI: 26.2 µM
A549 NSCLC
  GI50: 14 µM
  TGI: 31 µM
ACHN renal
  GI50: 14 µM
  TGI: 30 µM
BT-549 breast
  GI50: 8.34 µM
  TGI: 22.9 µM
CAKI-1 renal
  GI50: 7.23 µM
  TGI: 22.3 µM
CCRF-CEM leukemia
  GI50: 12.8 µM
  TGI: 30.7 µM
COLO 205 colon
  GI50: 1.88 µM
  TGI: 3.59 µM
DU-145 prostate
  GI50: 13.4 µM
  TGI: 27.4 µM
EKVX NSCLC
  GI50: 12.2 µM
  TGI: 28.9 µM
HCC-2998 colon
  GI50: 3.01 µM
  TGI: 11.7 µM
HCT-116 colon
  GI50: 4.41 µM
  TGI: 16.4 µM
HCT-15 colon
  GI50: 4.42 µM
  TGI: 17.9 µM
HL-60(TB) leukemia
  GI50: 4.69 µM
  TGI: 18.2 µM
HOP-62 NSCLC
  GI50: 15 µM
  TGI: 29 µM
HOP-92 NSCLC
  GI50: 5.76 µM
  TGI: 20 µM
HS 578T breast
  GI50: 11.3 µM
  TGI: 27.1 µM
HT29 colon
  GI50: 3.78 µM
  TGI: 14.6 µM
IGROV1 ovarian
  GI50: 18.8 µM
  TGI: 44.9 µM
K-562 leukemia
  GI50: 4.63 µM
  TGI: 16 µM
KM12 colon
  GI50: 4.92 µM
  TGI: 17.6 µM
LOX IMVI melanoma
  GI50: 8.1 µM
  TGI: 25 µM
M14 melanoma
  GI50: 3.75 µM
  TGI: 15 µM
MALME-3M melanoma
  GI50: 6.89 µM
  TGI: 22.3 µM
MCF7 breast
  GI50: 6.91 µM
  TGI: 21.9 µM
MDA-MB-231 breast
  GI50: 12.7 µM
  TGI: 29.3 µM
MDA-MB-435
  GI50: 10.2 µM
  TGI: 24.8 µM
MOLT-4 leukemia
  GI50: 11.5 µM
  TGI: 27.4 µM
NCI-H226 lung
  GI50: 13.2 µM
  TGI: 30.2 µM
NCI-H23 lung
  GI50: 12.2 µM
  TGI: 25.9 µM
NCI-H460 lung
  GI50: 7.13 µM
  TGI: 22.1 µM
NCI-H522 lung
  GI50: 14.9 µM
  TGI: 37 µM
NCI/ADR-RES ovarian
  GI50: 10.7 µM
  TGI: 23.4 µM
OVCAR-3 ovarian
  GI50: 10.4 µM
  TGI: 23 µM
OVCAR-4 ovarian
  GI50: 11.9 µM
  TGI: 24.7 µM
OVCAR-5 ovarian
  GI50: 15.8 µM
  TGI: 29.7 µM
OVCAR-8 ovarian
  GI50: 14.6 µM
  TGI: 33.4 µM
PC-3 prostate
  GI50: 7.61 µM
  TGI: 20.8 µM
RPMI-8226 leukemia
  GI50: 7.57 µM
  TGI: 25.6 µM
RXF 393 renal
  GI50: 10.6 µM
  TGI: 23.7 µM
SF-268 CNS
  GI50: 11.5 µM
  TGI: 26.3 µM
SF-295 CNS
  GI50: 10.5 µM
  TGI: 24.5 µM
SF-539 CNS
  GI50: 13.2 µM
  TGI: 26.4 µM
SK-MEL-2 melanoma
  GI50: 21 µM
  TGI: 41 µM
SK-MEL-28 melanoma
  GI50: 14 µM
  TGI: 27.8 µM
SK-MEL-5 melanoma
  GI50: 3.19 µM
  TGI: 12 µM
SK-OV-3 ovarian
  GI50: 15.5 µM
  TGI: 29 µM
SN12C renal
  GI50: 4.69 µM
  TGI: 18.5 µM
SNB-19 CNS
  GI50: 13 µM
  TGI: 25.8 µM
SNB-75 CNS
  GI50: 6.24 µM
  TGI: 20.4 µM
SR leukemia
  GI50: 3.81 µM
  TGI: 9.22 µM
SW-620 colon
  GI50: 11.1 µM
  TGI: 24.9 µM
T-47D breast
  GI50: 5.34 µM
  TGI: 19.6 µM
TK-10 renal
  GI50: 17.2 µM
  TGI: 32.7 µM
U251 CNS
  GI50: 10.2 µM
  TGI: 27.9 µM
UACC-257 melanoma
  GI50: 16.4 µM
  TGI: 30.8 µM
UACC-62 melanoma
  GI50: 11 µM
  TGI: 24.6 µM
UO-31 renal
  GI50: 11.7 µM
  TGI: 26 µM

Reference: PubChem BioAssay (NCI)
